Experiment in all cases: KINOMEscan
Type in all cases: binding

One assay addresses T1, CDK4-cyclinD1 (Homo sapiens, UniProt P11802).
T1 construct: purchased Ambit KINOMEscan (DiscoverX)
The following applies: CDK4-cyclinD1, 1 uM. An outline of the steps: (§1)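 Substrate-binding inhibition measured with compound present at 1 μM, single concentration, to pick out affected kinases.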

Assay [1] has as its target T2, ABL1(F317L)-phosphorylated (Homo sapiens, UniProt P00519, F317L).
T2 construct: purchased Ambit KINOMEscan (DiscoverX)
The following applies: 1 uM. In outline: as §1

The target of the next assay is T3, CDK4-cyclinD3 (Homo sapiens, UniProt P11802).
T3 construct: purchased Ambit KINOMEscan (DiscoverX)
The following applies: CDK4-cyclinD3, 1 uM. An outline of the steps:
as §1

The next assay has as its target T4, VRK2 (Homo sapiens, UniProt Q86Y07).
T4 construct: purchased Ambit KINOMEscan (DiscoverX)
The following applies: VRK2, 1 uM. An outline of the steps:
as §1

The next assay concerns the target T5, CASK (Homo sapiens, UniProt O14936).
T5 construct: purchased Ambit KINOMEscan (DiscoverX)
The following applies: 1 uM. In outline:
as §1

In the next assay the target is T6, TLK2 (Homo sapiens, UniProt Q86UE8).
T6 construct: purchased Ambit KINOMEscan (DiscoverX)
The following applies: TLK2, 1 uM. In outline: as §1

Assay [2] deals with T7, ABL1(H396P)-phosphorylated (Homo sapiens, UniProt P00519, H396P).
T7 construct: purchased Ambit KINOMEscan (DiscoverX)
The following applies: 1 uM. An outline of the steps: as §1

The target in a further assay is T8, SNRK (Homo sapiens, UniProt Q9NRH2).
T8 construct: purchased Ambit KINOMEscan (DiscoverX)
The following applies: 1 uM. An outline of the steps:
as §1

A further assay deals with T9, RET(M918T) (Homo sapiens, UniProt P07949, M918T).
T9 construct: purchased Ambit KINOMEscan (DiscoverX)
The following applies: 1 uM. An outline of the steps:
as §1

Another assay concerns the target T10, PRKCI (Homo sapiens, UniProt P41743).
T10 construct: purchased Ambit KINOMEscan (DiscoverX)
The following applies: 1 uM. In outline:
as §1

In another assay the target is T11, MYLK4 (Homo sapiens, UniProt Q86YV6).
T11 construct: purchased Ambit KINOMEscan (DiscoverX)
The following applies: MYLK4, 1 uM. In outline:
as §1

For assay [3], the target named is T12, EGFR(L747-S752del, P753S) (Homo sapiens, UniProt P00533, DEL747-752/P753S).
T12 construct: purchased Ambit KINOMEscan (DiscoverX)
The following applies: 1 uM. In outline: as §1

The next assay deals with T13, BLK (Homo sapiens, UniProt P51451).
T13 construct: purchased Ambit KINOMEscan (DiscoverX)
The following applies: 1 uM. An outline of the steps: as §1

The target in a further assay is T14, MEK5 (Homo sapiens, UniProt Q13163).
T14 construct: purchased Ambit KINOMEscan (DiscoverX)
The following applies: MEK5, 1 uM. An outline of the steps: as §1

The target in another assay is T15, MET(M1250T) (Homo sapiens, UniProt P08581, M1250T).
T15 construct: purchased Ambit KINOMEscan (DiscoverX)
The following applies: 1 uM. In outline:
as §1

The target in the next assay is T16, RET (Homo sapiens, UniProt P07949).
T16 construct: purchased Ambit KINOMEscan (DiscoverX)
The following applies: 1 uM. An outline of the steps:
as §1

The target of the next assay is T17, NEK11 (Homo sapiens, UniProt Q8NG66).
T17 construct: purchased Ambit KINOMEscan (DiscoverX)
The following applies: NEK11, 1 uM. In outline: as §1

A further assay has as its target T18, RET(V804M) (Homo sapiens, UniProt P07949, V804M).
T18 construct: purchased Ambit KINOMEscan (DiscoverX)
The following applies: 1 uM. An outline of the steps: as §1

The target in another assay is T19, CDKL1 (Homo sapiens, UniProt Q00532).
T19 construct: purchased Ambit KINOMEscan (DiscoverX)
The following applies: CDKL1, 1 uM. In outline: as §1

Another assay has as its target T20, LRRK2 (Homo sapiens, UniProt Q5S007).
T20 construct: purchased Ambit KINOMEscan (DiscoverX)
The following applies: LRRK2, 1 uM. An outline of the steps: as §1

The next assay addresses T21, EGFR(T790M) (Homo sapiens, UniProt P00533, T790M).
T21 construct: purchased Ambit KINOMEscan (DiscoverX)
The following applies: 1 uM. In outline:
as §1

Another assay deals with T22, RET(V804L) (Homo sapiens, UniProt P07949, V804L).
T22 construct: purchased Ambit KINOMEscan (DiscoverX)
The following applies: 1 uM. An outline of the steps:
as §1

Assay [4] addresses T23, EGFR(L747-E749del, A750P) (Homo sapiens, UniProt P00533, A750P/DEL747-749).
T23 construct: purchased Ambit KINOMEscan (DiscoverX)
The following applies: 1 uM. In outline:
as §1

For assay [5], the target named is T24, ABL1(F317L)-nonphosphorylated (Homo sapiens, UniProt P00519, F317L).
T24 construct: purchased Ambit KINOMEscan (DiscoverX)
The following applies: 1 uM. An outline of the steps: as §1

The target of a further assay is T25, MKK7 (Homo sapiens, UniProt O14733).
T25 construct: purchased Ambit KINOMEscan (DiscoverX)
The following applies: MKK7, 1 uM. An outline of the steps: as §1

The next assay concerns the target T26, TRPM6 (Homo sapiens, UniProt Q9BX84).
T26 construct: purchased Ambit KINOMEscan (DiscoverX)
The following applies: TRPM6, 1 uM. An outline of the steps: as §1

The target of a further assay is T27, FLT3(K663Q) (Homo sapiens, UniProt P36888, K663Q).
T27 construct: purchased Ambit KINOMEscan (DiscoverX)
The following applies: 1 uM. In outline: as §1

The next assay deals with T28, PIP5K1C (Homo sapiens, UniProt O60331).
T28 construct: purchased Ambit KINOMEscan (DiscoverX)
The following applies: 1 uM. An outline of the steps:
as §1

Assay [6] concerns the target T29, RPS6KA3(Kin.Dom.1-N-terminal) (Homo sapiens, UniProt P51812).
T29 construct: RPS6KA3(Kin.Dom.1-N-terminal); purchased Ambit KINOMEscan (DiscoverX)
The following applies: 1 uM. In outline:
as §1

For another assay, the target named is T30, IRAK4 (Homo sapiens, UniProt Q9NWZ3).
T30 construct: purchased Ambit KINOMEscan (DiscoverX)
The following applies: IRAK4, 1 uM. An outline of the steps: as §1

Another assay deals with T31, SRC (Homo sapiens, UniProt P12931).
T31 construct: purchased Ambit KINOMEscan (DiscoverX)
The following applies: 1 uM. In outline: as §1

Another assay addresses T32, EGFR(S752-I759del) (Homo sapiens, UniProt P00533, DEL752-759).
T32 construct: purchased Ambit KINOMEscan (DiscoverX)
The following applies: 1 uM. An outline of the steps:
as §1

A further assay has as its target T33, PIK3CA(I800L) (Homo sapiens, UniProt P42336, I800L).
T33 construct: purchased Ambit KINOMEscan (DiscoverX)
The following applies: 1 uM. In outline:
as §1

Another assay deals with T34, LRRK2(G2019S) (Homo sapiens, UniProt Q5S007, G2019S).
T34 construct: purchased Ambit KINOMEscan (DiscoverX)
T34 sequence (Q5S007 whole entry G2019S): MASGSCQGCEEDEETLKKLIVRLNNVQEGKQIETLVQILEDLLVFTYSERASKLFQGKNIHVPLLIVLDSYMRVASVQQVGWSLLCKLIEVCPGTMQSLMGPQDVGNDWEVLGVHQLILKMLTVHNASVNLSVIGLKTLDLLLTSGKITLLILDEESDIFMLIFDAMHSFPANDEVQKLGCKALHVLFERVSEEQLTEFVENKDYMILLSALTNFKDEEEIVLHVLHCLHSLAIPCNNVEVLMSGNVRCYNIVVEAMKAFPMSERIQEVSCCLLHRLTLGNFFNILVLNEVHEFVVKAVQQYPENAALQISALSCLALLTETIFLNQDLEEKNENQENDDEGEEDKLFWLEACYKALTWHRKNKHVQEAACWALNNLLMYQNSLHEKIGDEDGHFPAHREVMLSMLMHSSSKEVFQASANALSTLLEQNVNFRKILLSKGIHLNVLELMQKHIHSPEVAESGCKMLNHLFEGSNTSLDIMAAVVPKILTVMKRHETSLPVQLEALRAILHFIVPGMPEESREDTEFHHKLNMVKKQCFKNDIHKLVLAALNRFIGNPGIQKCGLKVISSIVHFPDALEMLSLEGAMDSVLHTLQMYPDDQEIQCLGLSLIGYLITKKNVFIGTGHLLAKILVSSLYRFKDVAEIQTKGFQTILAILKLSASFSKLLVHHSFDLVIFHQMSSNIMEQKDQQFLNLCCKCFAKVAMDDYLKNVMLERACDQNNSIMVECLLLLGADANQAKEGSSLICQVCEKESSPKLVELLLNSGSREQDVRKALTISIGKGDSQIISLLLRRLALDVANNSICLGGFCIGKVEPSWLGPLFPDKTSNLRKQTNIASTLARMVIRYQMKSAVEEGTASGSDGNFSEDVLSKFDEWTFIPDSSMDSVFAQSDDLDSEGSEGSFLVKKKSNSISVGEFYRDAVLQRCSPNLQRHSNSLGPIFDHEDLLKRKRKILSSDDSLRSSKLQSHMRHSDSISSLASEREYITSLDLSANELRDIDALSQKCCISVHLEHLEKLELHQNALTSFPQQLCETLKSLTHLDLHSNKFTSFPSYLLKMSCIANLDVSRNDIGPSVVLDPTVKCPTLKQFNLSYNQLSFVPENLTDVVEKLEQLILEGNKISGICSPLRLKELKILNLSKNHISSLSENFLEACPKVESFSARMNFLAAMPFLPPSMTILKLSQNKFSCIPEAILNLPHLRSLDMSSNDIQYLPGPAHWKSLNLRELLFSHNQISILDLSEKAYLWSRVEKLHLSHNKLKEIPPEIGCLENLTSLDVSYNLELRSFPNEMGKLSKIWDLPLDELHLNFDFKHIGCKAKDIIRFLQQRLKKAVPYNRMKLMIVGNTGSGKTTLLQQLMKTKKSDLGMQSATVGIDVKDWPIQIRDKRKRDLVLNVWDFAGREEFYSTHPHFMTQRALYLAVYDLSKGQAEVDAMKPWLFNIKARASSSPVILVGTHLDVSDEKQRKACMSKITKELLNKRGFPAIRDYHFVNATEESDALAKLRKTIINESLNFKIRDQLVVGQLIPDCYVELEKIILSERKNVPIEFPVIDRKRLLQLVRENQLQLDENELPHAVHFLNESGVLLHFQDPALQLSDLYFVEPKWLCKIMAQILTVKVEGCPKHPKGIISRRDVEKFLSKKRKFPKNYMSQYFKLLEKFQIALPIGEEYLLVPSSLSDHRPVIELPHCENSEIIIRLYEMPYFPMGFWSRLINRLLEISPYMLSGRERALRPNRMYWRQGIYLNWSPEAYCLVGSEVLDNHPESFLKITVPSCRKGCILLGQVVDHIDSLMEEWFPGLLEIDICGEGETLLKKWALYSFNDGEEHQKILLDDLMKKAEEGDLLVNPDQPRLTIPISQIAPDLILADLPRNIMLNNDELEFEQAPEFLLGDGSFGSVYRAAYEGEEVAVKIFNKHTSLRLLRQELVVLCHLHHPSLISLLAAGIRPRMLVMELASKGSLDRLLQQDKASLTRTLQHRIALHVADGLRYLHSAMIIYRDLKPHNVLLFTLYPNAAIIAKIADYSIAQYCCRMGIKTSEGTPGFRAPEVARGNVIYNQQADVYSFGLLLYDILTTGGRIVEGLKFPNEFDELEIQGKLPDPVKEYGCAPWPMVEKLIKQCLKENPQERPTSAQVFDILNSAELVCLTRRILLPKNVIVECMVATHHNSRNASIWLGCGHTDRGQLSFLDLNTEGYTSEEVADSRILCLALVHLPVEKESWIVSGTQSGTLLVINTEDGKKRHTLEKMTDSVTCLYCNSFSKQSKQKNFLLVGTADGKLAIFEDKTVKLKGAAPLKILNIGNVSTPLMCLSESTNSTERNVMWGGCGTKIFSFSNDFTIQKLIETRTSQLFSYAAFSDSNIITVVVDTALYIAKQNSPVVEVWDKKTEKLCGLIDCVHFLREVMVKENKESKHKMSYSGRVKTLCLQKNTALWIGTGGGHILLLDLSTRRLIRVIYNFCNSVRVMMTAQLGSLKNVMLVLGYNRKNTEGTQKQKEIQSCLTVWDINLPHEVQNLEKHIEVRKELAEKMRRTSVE
The following applies: 1 uM. An outline of the steps: as §1

A further assay has as its target T35, NEK3 (Homo sapiens, UniProt P51956).
T35 construct: purchased Ambit KINOMEscan (DiscoverX)
The following applies: NEK3, 1 uM. An outline of the steps: as §1

In the next assay the target is T36, SGK3 (Homo sapiens, UniProt Q96BR1).
T36 construct: purchased Ambit KINOMEscan (DiscoverX)
The following applies: SGK3, 1 uM. An outline of the steps: as §1

The target in assay [7] is T37, RPS6KA2(Kin.Dom.1-N-terminal) (Homo sapiens, UniProt Q15349).
T37 construct: RPS6KA2(Kin.Dom.1-N-terminal); purchased Ambit KINOMEscan (DiscoverX)
The following applies: 1 uM. In outline: as §1

T26 sequence (Q9BX84 whole entry): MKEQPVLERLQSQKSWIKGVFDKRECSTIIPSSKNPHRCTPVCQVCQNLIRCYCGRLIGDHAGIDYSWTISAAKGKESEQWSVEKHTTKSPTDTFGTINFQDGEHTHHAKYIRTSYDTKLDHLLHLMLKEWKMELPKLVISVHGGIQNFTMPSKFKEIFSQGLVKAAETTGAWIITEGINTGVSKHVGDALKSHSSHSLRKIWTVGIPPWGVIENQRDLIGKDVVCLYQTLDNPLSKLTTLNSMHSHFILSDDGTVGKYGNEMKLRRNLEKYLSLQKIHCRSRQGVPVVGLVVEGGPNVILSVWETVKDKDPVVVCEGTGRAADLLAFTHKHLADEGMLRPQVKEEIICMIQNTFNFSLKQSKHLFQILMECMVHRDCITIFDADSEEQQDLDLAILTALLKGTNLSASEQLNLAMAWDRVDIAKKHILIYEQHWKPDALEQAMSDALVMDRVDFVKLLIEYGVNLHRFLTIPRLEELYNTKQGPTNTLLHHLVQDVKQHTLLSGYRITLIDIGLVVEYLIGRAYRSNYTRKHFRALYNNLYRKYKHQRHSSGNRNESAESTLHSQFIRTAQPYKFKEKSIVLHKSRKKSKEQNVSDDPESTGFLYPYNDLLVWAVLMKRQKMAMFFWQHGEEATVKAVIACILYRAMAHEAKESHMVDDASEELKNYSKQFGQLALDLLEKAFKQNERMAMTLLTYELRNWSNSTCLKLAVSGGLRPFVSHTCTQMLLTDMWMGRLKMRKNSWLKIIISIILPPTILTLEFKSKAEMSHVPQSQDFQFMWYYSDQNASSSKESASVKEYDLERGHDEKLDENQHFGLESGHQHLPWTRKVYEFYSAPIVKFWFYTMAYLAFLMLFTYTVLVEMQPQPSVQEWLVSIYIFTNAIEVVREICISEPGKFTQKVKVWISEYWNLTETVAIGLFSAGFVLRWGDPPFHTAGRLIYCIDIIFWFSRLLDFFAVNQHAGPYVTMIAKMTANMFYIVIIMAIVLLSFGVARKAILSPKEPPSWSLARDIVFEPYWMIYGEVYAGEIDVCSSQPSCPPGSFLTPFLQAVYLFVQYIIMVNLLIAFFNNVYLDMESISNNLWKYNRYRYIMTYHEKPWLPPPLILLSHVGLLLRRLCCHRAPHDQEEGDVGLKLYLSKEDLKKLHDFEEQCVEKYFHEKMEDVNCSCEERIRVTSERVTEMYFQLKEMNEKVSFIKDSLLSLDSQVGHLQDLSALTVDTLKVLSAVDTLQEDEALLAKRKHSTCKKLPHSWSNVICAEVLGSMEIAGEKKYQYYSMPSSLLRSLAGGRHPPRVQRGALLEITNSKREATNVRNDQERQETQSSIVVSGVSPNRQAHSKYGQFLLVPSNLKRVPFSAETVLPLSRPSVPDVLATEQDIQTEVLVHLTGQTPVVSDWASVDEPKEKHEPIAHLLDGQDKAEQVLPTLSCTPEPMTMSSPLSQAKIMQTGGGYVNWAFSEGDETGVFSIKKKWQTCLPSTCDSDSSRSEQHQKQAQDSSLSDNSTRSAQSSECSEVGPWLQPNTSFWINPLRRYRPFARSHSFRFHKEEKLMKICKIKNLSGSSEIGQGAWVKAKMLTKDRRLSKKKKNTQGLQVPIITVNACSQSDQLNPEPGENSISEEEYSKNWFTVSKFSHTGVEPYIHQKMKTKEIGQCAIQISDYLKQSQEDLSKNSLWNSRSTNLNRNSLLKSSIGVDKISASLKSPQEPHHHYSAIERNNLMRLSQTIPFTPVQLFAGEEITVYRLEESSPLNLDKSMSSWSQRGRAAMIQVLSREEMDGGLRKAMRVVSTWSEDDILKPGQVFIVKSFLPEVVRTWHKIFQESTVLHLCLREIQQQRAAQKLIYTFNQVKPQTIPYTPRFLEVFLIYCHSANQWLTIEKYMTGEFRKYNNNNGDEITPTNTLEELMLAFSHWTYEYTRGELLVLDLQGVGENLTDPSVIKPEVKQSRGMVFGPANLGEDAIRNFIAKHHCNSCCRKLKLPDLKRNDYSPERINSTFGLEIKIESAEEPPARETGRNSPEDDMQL
T35 sequence (P51956 whole entry): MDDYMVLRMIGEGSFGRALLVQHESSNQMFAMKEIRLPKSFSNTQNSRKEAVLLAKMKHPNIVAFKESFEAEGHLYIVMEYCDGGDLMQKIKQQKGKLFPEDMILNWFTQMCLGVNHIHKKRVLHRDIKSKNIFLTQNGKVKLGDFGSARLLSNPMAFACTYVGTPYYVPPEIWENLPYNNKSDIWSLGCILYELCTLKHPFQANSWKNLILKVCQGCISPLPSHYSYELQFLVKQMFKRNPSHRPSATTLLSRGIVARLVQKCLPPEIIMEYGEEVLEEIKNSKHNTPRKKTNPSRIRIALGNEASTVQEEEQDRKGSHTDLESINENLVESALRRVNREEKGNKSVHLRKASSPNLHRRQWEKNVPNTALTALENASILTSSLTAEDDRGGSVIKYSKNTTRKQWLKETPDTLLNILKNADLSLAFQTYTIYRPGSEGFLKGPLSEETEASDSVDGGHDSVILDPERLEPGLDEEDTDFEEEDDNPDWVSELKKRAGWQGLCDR
T20 sequence (Q5S007 whole entry): as the sequence (Q5S007 whole entry G2019S) above, with S2019G counted along it

On to `COc1ccccc1Nc1nc(-c2ccc(OC)c(OC)c2)cc2nccn12` [BAY derivative 6], for which the “% binding compared to no inhibitor control” value worked out at 100% on CDK4-cyclinD1; 100% in [1]; 95% on CDK4-cyclinD3; 88% on VRK2; 100% on CASK; 100% on TLK2. Moreover, the “% binding compared to no inhibitor control” value in [2] is 100%; at SNRK it was 94%; at RET(M918T), 72%; at PRKCI, 100%; at MYLK4, 100%; in [3], 76%. For the same compound, the “% binding compared to no inhibitor control” value was found to be 43% at BLK; 100% at MEK5; 100% at MET(M1250T); 100% at RET; 84% at NEK11; 94% at RET(V804M). Besides, the “% binding compared to no inhibitor control” value was determined as 100% at CDKL1; 95% at LRRK2; 48% on EGFR(T790M); 95% at RET(V804L); 74% in assay [4]; 100% in assay [5]. The “% binding compared to no inhibitor control” value was 86% on MKK7; 95% on TRPM6; 63% on FLT3(K663Q); 71% at PIP5K1C; 96% in assay [6]; 100% at IRAK4. For the same compound, the “% binding compared to no inhibitor control” value amounted to 51% at SRC; 72% at EGFR(S752-I759del); 100% at PIK3CA(I800L); 92% at LRRK2(G2019S); 100% at NEK3; 100% on SGK3.
With `COc1ccc(-c2cc3nccn3c(Nc3ncccc3C(N)=O)n2)cc1OC.Cl.Cl` [BAY61-3606, 2-[7-(3,4-dimethoxyphenyl)-imidazo [1,2-c]pyrimidin-5-ylamino] nicotinamide dihydrochloride, reference compound], the “% binding compared to no inhibitor control” value in assay [7] is recorded as 92%.

Source of the values: PMC3399817 (PLoS ONE, 2012).
